The source of these data is PMC11317875 (Chemical Science, 2024).

Experiment [1] relates to Mycobacterium tuberculosis. The experiment can be described thus: Ion chromatography of hydrolysed lipid extracts of F-Tre labelled Mtb. It is filed as cell-based.
The test system of experiment [2] is Mycobacterium tuberculosis. Description: Time dependent F-Tre uptake, HPAEC-PAD of cytosolic extracts. The note with it: for accumulation rate: 100 μM probe, cytosolic extracts; for Mtb cytosolic concentration: 100 µM probe; for saturation of uptake: up to the 8 hour timepoint. The format is cell-based. The protocol:
lyophilised, resuspended in 1 mL 18 MΩ H2O and filtered through a 10-kDa molecular weight cut-off centrifuge filter (Amicon) and the filtrate analysed. HPAEC-PAD was performed on a Dionex ICS5000+ system with a CarboPac PA-20 analytical column (3 mm x 150 mm) and PA-20 guard column (3 mm x 30 mm) kept at 20 °C. Pulsed amperometry with standard quadrupole waveform was used for detection. The system was equipped with an autosampler that was set up to inject 10 μL sample volumes. Multistep gradient […]
Chromeleon 7 software (Dionex) was used for data processing.
Table S11: High performance anion exchange chromatography KOH elution gradient for F-Tre analysis Time (min) KOH conc. (mM) Flow rate (mL/min)
To quantify uptake, the peak area of 2F-Tre, 3F-Tre and 6F-Tre standards at varying concentrations were measured (Chromeleon 7 software). The peak area was plotted against concentration and simple linear regression was plotted. To determine the concentration of F-Tre analogues in cytosolic samples the area of the peaks of interest was measured (Chromeleon 7 software) and the concentration determined from the calibration […]
Time dependent F-Tre uptake
M. tuberculosis was grown to an OD600 of 0.8, then 2F-Tre, 3F-Tre, 4F-Tre or 6F-Tre were added to a final concentration of 100 µM. Controls with the equivalent volume of water or equivalent concentration of trehalose were also prepared. 5 mL aliquots were taken at T=0, 0.5, 1, 1.5, 2, 3, 4, 6, 8 h and the cells were harvested by centrifugation (2,916 x g, 5 min, 22 ° C) and washed (5 mL PBST) three times. The pellets were then resuspended in 1 mL H2O and lysed by mechanical disruption using 0.1 mm zirconia/silica beads (BioSpec Products) on a FastPrep (MP Biomedicals) ribolyser (4 x 45 s cycles with 90 s on ice in between).
Samples were then centrifuged (16,200 x g, 10 min, 22 °C) and the supernatant collected, lyophilised, resuspended in 1 mL 18 MΩ H2O and filtered through a 10-kDa molecular weight cut-off centrifuge filter (Amicon). The filtrate was analysed by HPAEC-PAD and quantified as described above.

For experiment [3], the system named is Mycobacterium tuberculosis. Description: F-Tre uptake at a single time point, HPAEC-PAD of cytosolic extracts. It is filed as cell-based. The note with it: for uptake / accumulation in Mtb cells: 0-200 μM probe, ion chromatography of cytosolic extracts; for Peak area of F-Tre peak: HPAEC trace.
Experiment [4] has as its system M. bovis BCG. The format is cell-based, Mycobacterium bovis BCG. The note with it: for new spots in the lipid extracts (TLC): 100 μM probe.
Experiment [5] relates to Wild-type Mycobacterium bovis BCG. The format is cell-based. The following applies: 100 μM probe.
For experiment [6], the system named is Mtb. The format is cell-based, Mycobacterium tuberculosis. The following applies: for new spots in the lipid extracts (TLC) / additional band in the TDM region (TLC) / additional lower polarity bands than TMM (TLC): 100 μM probe; for additional band in the TDM region (TLC) / additional lower polarity bands than TMM (TLC): Fig. 8 shows Mtb and M. bovis BCG.
The target in experiment [7] is T1, LpqY (Mycolicibacterium thermoresistibile, UniProt G7CES0). The experiment can be described thus: Microscale thermophoresis (MST) binding to LpqY. The note with it: for fold weaker binding to LpqY: compared with 3F-Tre, 6F-Tre and unmodified trehalose. A general note: In MST a laser heats a spot of the sample, and binding alters the fluorescence response.
Method: Microscale Thermophoresis
Mtr LpqY (2.6 μM) was labelled with the amine reactive RED-NHS dye (3 μM) (second generation,
NanoTemper Technologies). Following incubation in the dark for 30 min with shaking (300 rpm, room
temperature), excess dye was removed using a Zeba desalting spin column (7KMWCO).
analogues were prepared in PBS containing 0.05% Tween 20, and the final concentration of the protein in the
assay was 500 nM. The samples were loaded into the MonoLith NT.115 standard treated capillaries and
incubated for 10 min before analysis using the Monolith NT.115 instrument (NanoTemper Technologies) at
Experiment [8] concerns the target T1, LpqY. On the set-up: His-SUMO (N, cleaved yes); made in house; host or cells: E. coli BL21 (DE3). The following applies: LpqY-azide-trehalose binding; cited from earlier work.

Structures are written as SMILES. Read-outs that look alike come from different tables or passages of the source.

T1 sequence (G7CES0 29-471): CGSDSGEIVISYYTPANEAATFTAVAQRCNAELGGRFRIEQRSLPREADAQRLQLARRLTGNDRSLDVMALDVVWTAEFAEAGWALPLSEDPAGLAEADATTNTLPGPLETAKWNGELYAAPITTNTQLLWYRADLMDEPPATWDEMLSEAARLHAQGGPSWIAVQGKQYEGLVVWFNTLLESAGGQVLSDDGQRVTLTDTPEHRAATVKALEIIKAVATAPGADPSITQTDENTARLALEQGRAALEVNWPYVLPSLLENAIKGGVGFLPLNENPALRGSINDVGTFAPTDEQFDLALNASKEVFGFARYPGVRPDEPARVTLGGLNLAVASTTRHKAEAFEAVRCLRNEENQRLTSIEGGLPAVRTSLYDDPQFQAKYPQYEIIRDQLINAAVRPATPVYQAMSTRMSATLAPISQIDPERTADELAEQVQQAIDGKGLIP

Consider `OC[C@H]1O[C@H](O[C@H]2O[C@H](CO)[C@@H](O)[C@H](O)[C@H]2F)[C@H](O)[C@@H](O)[C@@H]1O` [2F-Tre, 2-deoxy-2-fluoro-trehalose], for which the “detection in hydrolysed lipid extracts” value in experiment [1] (100 µM probe, HPAEC-PAD) is “detected”. Moreover, the “Peak area of F-Tre peak in hydrolysed lipid extracts” value in experiment [1] (Mtb + F-Tre (100 µM)) is given as 0.662 nC*min. In experiment [2], this compound showed an accumulation rate of 0.80 µM/h. The Mtb cytosolic concentration in experiment [2] (Time 0 h) was 0 ± 0 µM; in experiment [2] (Time 0.5 h) it was 636 ± 33 µM; in experiment [2] (Time 1 h), 838 ± 52 µM; in experiment [2] (Time 1.5 h), 1144 ± 250 µM; in experiment [2] (Time 2 h), 1717 ± 151 µM; in experiment [2] (Time 4 h) it was 2917 ± 105 µM. Further, the values for the Mtb cytosolic concentration in experiment [2] (Time 6 h) and in experiment [2] (Time 8 h) were 4597 ± 236 µM and 6639 ± 337 µM, respectively. For the same compound, in experiment [2], the saturation of uptake entry is reported as “no saturation of uptake”. For the same compound, in experiment [3], the “uptake / accumulation in Mtb cells” value was “significant dose-dependent increase in the accumulation”. The “Peak area of F-Tre peak” value in experiment [3] (Mtb + 25 µM F-Tre) is 0.096 nC*min; in experiment [3] (Mtb + 50 µM F-Tre), 0.206 nC*min; in experiment [3] (Mtb + 100 µM F-Tre), 0.362 nC*min; in experiment [3] (Mtb + 200 µM F-Tre), 1.328 nC*min. Moreover, the “new spots in the lipid extracts (TLC)” value in experiment [4] and in experiment [6] was “new spots” each time. Also, in experiment [5], the “accumulation in cytosolic extracts” value was “accumulate”. Also, the “additional band in the TDM region (TLC)” value in experiment [6] is “one additional lower polarity TDM band”. Also, the “additional lower polarity bands than TMM (TLC)” value in experiment [6] is reported as “Two additional lower polarity bands than TMM”. The Kd in experiment [7] stood at 770 ± 23.2 µM. In addition, the “fold weaker binding to LpqY” value in experiment [7] is listed as around 8 fold.
For the compound `OC[C@H]1O[C@H](O[C@H]2O[C@H](CF)[C@@H](O)[C@H](O)[C@H]2O)[C@H](O)[C@@H](O)[C@@H]1O` [6F-Tre, 6-deoxy-6-fluoro-trehalose], the accumulation rate in experiment [2] came out at 0.82 µM/h. Further, the Mtb cytosolic concentration was 0 ± 0 µM in experiment [2] (Time 0 h); 342 ± 16 µM in experiment [2] (Time 0.5 h); 797 ± 224 µM in experiment [2] (Time 1 h); 1392 ± 83 µM in experiment [2] (Time 1.5 h); 1804 ± 111 µM in experiment [2] (Time 2 h); 2945 ± 234 µM in experiment [2] (Time 4 h). For the same compound, the Mtb cytosolic concentration in experiment [2] (Time 6 h) was found to be 4694 ± 237 µM; in experiment [2] (Time 8 h), 6843 ± 43 µM. In experiment [2], the saturation of uptake entry was “no saturation of uptake”. Further, the “uptake / accumulation in Mtb cells” value in experiment [3] is “significant dose-dependent increase in the accumulation”. Also, the “Peak area of F-Tre peak” value in experiment [3] (Mtb + 25 µM F-Tre) came to 0.144 nC*min; in experiment [3] (Mtb + 50 µM F-Tre), 0.506 nC*min; in experiment [3] (Mtb + 100 µM F-Tre) it was 0.866 nC*min; in experiment [3] (Mtb + 200 µM F-Tre) it was 1.604 nC*min. The “new spots in the lipid extracts (TLC)” value in experiment [4] and in experiment [6] was “new spots” throughout. The “accumulation in cytosolic extracts” value in experiment [5] is recorded as “accumulate”. Moreover, the “additional band in the TDM region (TLC)” value in experiment [6] is recorded as “no additional band in the TDM region”. Further, in experiment [6], the “additional lower polarity bands than TMM (TLC)” value was “one”. Also, binding in experiment [7] was characterised by a dissociation constant (Kd) of 90.3 ± 0.9 µM.
Regarding `[N-]=[N+]=N[C@@H]1[C@@H](O)[C@@H](O[C@H]2O[C@H](CO)[C@@H](O)[C@H](O)[C@H]2O)O[C@H](CO)[C@H]1O` [3Az-Tre, 3-Deoxy-3-azido-trehalose], in experiment [8], the Kd is 475 ± 17.2 µM.
`OC[C@H]1O[C@H](O[C@H]2O[C@H](CO)[C@@H](O)[C@H](F)[C@H]2O)[C@H](O)[C@@H](O)[C@@H]1O` [3F-Tre, 3-deoxy-3-fluoro-trehalose]: in experiment [2], the accumulation rate came to 0.94 µM/h. The Mtb cytosolic concentration in experiment [2] (Time 0 h) is reported as 0 ± 0 µM; in experiment [2] (Time 0.5 h), 250 ± 102 µM; in experiment [2] (Time 1 h) it was 423 ± 256 µM; in experiment [2] (Time 1.5 h) it was 1030 ± 335 µM; in experiment [2] (Time 2 h), 1628 ± 25 µM; in experiment [2] (Time 4 h), 3016 ± 102 µM. Moreover, the results for the Mtb cytosolic concentration in experiment [2] (Time 6 h) and in experiment [2] (Time 8 h) were 5872 ± 297 µM and 7892 ± 72 µM, respectively. In addition, in experiment [2] (at 8 hours), the “increased accumulation compared to 2F- and 6F-Tre” value was around 20%. For the same compound, in experiment [2], the saturation of uptake result is “no saturation of uptake”. In addition, the “uptake / accumulation in Mtb cells” value in experiment [3] was “significant dose-dependent increase in the accumulation”. In addition, the “Peak area of F-Tre peak” value was 1.869 nC*min in experiment [3] (Mtb + 25 µM F-Tre), 3.093 nC*min in experiment [3] (Mtb + 50 µM F-Tre), 6.779 nC*min in experiment [3] (Mtb + 100 µM F-Tre) and 12.530 nC*min in experiment [3] (Mtb + 200 µM F-Tre). Further, the “new spots in the lipid extracts (TLC)” value in experiment [4] and in experiment [6] was “new spots” each time. Further, in experiment [5], the “accumulation in cytosolic extracts” value is reported as “accumulate”. The “additional band in the TDM region (TLC)” value in experiment [6] is “one additional lower polarity TDM band”. The “additional lower polarity bands than TMM (TLC)” value in experiment [6] is “Two additional lower polarity bands than TMM”. Besides, the Kd in experiment [7] was determined as 111 ± 7.1 µM.
For `OC[C@H]1O[C@H](O[C@H]2O[C@H](CO)[C@@H](F)[C@H](O)[C@H]2O)[C@H](O)[C@@H](O)[C@@H]1O` [4F-Tre], the Mtb cytosolic concentration in experiment [2] (Time 0 h), in experiment [2] (Time 0.5 h), in experiment [2] (Time 1 h), in experiment [2] (Time 1.5 h), in experiment [2] (Time 2 h) and in experiment [2] (Time 4 h) was 0 µM in each case. Besides, the Mtb cytosolic concentration in experiment [2] (Time 6 h) and in experiment [2] (Time 8 h) was 0 µM each time. The “uptake / accumulation in Mtb cells” value in experiment [3] is reported as “No uptake”. Also, the “presence in trehalose glycolipids” value in experiment [4] and in experiment [6] was “not found in any trehalose glycolipid” each time. In addition, the “new spots in the lipid extracts (TLC)” value in experiment [4] and in experiment [6] was “No new spots” each time. Further, in experiment [5], the “accumulation in cytosolic extracts” value is listed as “not”. This compound also showed a Kd in experiment [7] of 1480 ± 75.6 µM. In addition, the affinity range entry in experiment [7] (MST) was “millimolar range”. The “fold weaker binding to LpqY” value in experiment [7] is on record as around 16 fold.
For the compound `[N-]=[N+]=NC[C@H]1O[C@H](O[C@H]2O[C@H](CO)[C@@H](O)[C@H](O)[C@H]2O)[C@H](O)[C@@H](O)[C@@H]1O` [6Az-Tre, 6-Deoxy-6-azido-trehalose], in experiment [8], the equilibrium dissociation constant (Kd) is 443 ± 5.3 µM.
On to `[N-]=[N+]=N[C@H]1[C@H](O)[C@@H](O)[C@@H](O[C@H]2O[C@H](CO)[C@@H](O)[C@H](O)[C@H]2O)O[C@@H]1CO` [4Az-Tre, 4-Deoxy-4-azido-trehalose], for which the dissociation constant Kd in experiment [8] was 247 ± 7.1 µM.
As for `[N-]=[N+]=N[C@H]1[C@@H](O[C@H]2O[C@H](CO)[C@@H](O)[C@H](O)[C@H]2O)O[C@H](CO)[C@@H](O)[C@@H]1O` [2Az-Tre, 2-Deoxy-2-azido-trehalose], the Kd in experiment [8] was 1916 ± 7.7 µM.

As usually defined, the Kd is the equilibrium constant for the complex coming apart.
